For data set [1], the system named is explants of adipose tissues. Nature of the data set: Slimming effect: glycerol released in culture medium of adipose tissue explants. Format: cell-based, human. Here is the method:
The activity of the compounds of the invention on the adipocytes has been assessed. To do so, tests have been carried out on explants of adipose tissues that are kept alive according to the following experimental protocol. The products to be tested are introduced in the culture medium. After 9 days of treatment, the activity is assessed through an assay of the glycerol released in the culture medium. In order to be able to compare the potential activity of the molecules, caffeine (Sigma ref C-0750 batch 127F0396), which is known for its activity on the adipocytes (Studlar M. […] The explants are prepared from a tummy tuck ([…]-AB-40) carried out on a donor. 54 explants of tissues have been prepared and kept alive in a medium which is supplemented with penicillin/streptomycin antibiotics (Gibco ref 15140 batch 918578) at 37° C. and with 5% of CO2. The treatment has been carried out, on 3 explants, by incorporating 100 μl of the product (which is in turn at a 2% concentration in the adequate solvent, DMSO) in 2 ml of the culture medium on days J0, J2, J3, J5 and J7. Caffeine has been diluted to the desired concentration in the culture medium on these same days. The control explants have undergone no treatment. On J0, the 3 explants have been collected and frozen at -80° C. On J9, the remaining explants have been collected and preserved under the same conditions. The extraction of lipids from the culture medium has been carried out according to a tested procedure. The assay of the glycerol of the culture medium has been carried out using a glycerol assay kit (Megazyme, K-GROL) in the form of 96-well microplates and reading has been made at 340 nm with a Tecam Infinite M200 microplate reader associated to the Magellan software.

Data set [2] deals with normal human dermal fibroblasts. Nature of the data set: Production of progerin in monolayer cultures of normal human dermal fibroblasts (ELISA). Format: cell-based. The conditions noted are these: for Progerin % DMSO / Progerin Average / Progerin, individual values / Progerin Difference (%): 96 hours; for Progerin Difference (%): vs DMSO; for neo synthesis of progerin: under the retained experimental conditions. An excerpt:
In order to study the influence of the compounds of the invention on the concentration of progerin in the cells, the assay method described by C. Verdy, J.-E. Branka and N. Mekideche in <<Quantitative assessment of lactate and progerine production in normal human cutaneous cells during normal ageing: effect of an alaria esculenta extract>>, Int. J. Cosmetic Science, 2011, 1-5, has been used.
(§1) The test system consists of monolayers of adult normal human dermal fibroblasts obtained by cultivating cells collected from a tummy tuck carried out on a person.
Insulin at 10 nM has been used as a reference product in this study. […]
(§2) The compound to be tested is solubilized in 1 mg/ml in DMSO, then diluted in the cells incubation medium, with a constant concentration of 0.1% (v/v) in DMSO.
Upon completion of the incubation period, on the one hand, the progerin has been quantified in the cellular lysates (obtained by ultrasonic action) through a sensitive and specific ELISA assay, and on the other hand, the proteins that are contained in the cellular lysates have been quantified by a spectrophotometric method (Bradford method—Bradford M. (1976) Anal. Biochem., 72, 248-254).
(§3) The statistical significance of the differences that have been observed between the <<Control>> and the <<reference product>> conditions, has been assessed through a Student test. The statistical significance of the differences that have been observed between the <<Check>> and the <<test products>> conditions, has been assessed through a one-way analysis of variance (One Way ANOVA) followed by a Holm-Sidak test (*:p<0.05).
(An ELISA detects its analyte on a solid surface through an enzyme-linked reagent.)

Data set [3] shares this test system. Nature of the data set: Neo synthesis of elastin in monolayer cultures of normal human dermal fibroblasts. Format: cell-based. The conditions noted are these: 10 ng/ml, 96 hours. Here is the method:
as §1
The used reference activator is the ascorbic acid at 100 μg/ml.
The cells have been incubated for 96 hours in the absence (control) or in the presence of the reference product or of increasing concentrations of the active ingredient that is being tested (10 ng/ml; 100 ng/ml; 500 ng/ml).
as §2
Upon completion of the incubation period, the elastin contained in the incubation medium of the explants has been quantified by a spectrophotometric method.
Upon completion of the incubation period, the proteins contained in the cellular lysate have been quantified by a spectrophotometric method (Bradford method—Bradford M. (1976) Anal. Biochem., 72, 248-254).
The results are given in the form of μg of elastin per mg of protein (average+/− the standard deviation, S.D.).

Data set [4] is described as follows: ORAC (Oxygen Radical Absorbance Capacity) antioxidant activity. It counts as biochemical. The conditions noted are these: average of 3 measurements. An excerpt:
The ORAC (Oxygen Radical Absorbance Capacity) method, described in Cao, G., Alessio, H. M., Cutler, R. G. Free radical Biology & Medecine 1993, 14: 303-311<<Oxygen-Radical Absorbance Capacity assay for antioxydants>> and Benderitter, M., Vincent-Genid, L., Pouget, J. P., Voisin, P. Radiation Research 2003; 159 (4): 471-483 <<The cell membrane as a biosensor of oxydative stress induced by radiation exposure:multiparameter investigation>>, has been used for measuring the anti-oxidant capability of the compounds of the invention.
By convention, the ORAC antioxidant activity of any molecule is measured in comparison with a recognized reference which is an analog of vitamin E, the trolox (6-hydroxy-2,5,7,8-tetramethylchroman-2-carboxylic acid), the anti-oxidant capability of 1 μM (micro mole) of trolox corresponding to 1 ORAC unit.
The ORAC values are commonly reported in μmol TE/g (in micromole of Trolox Equivalent per gram of product to be tested).
Given these definitions, the trolox has an ORAC index of about 3995 units.
The ORAC values of the compounds 26 and 34 have been measured (average of 3 measurements).

The subject of data set [5] is normal human dermal fibroblasts. Nature of the data set: Production of type I pro-collagen in monolayer cultures of normal human dermal fibroblasts (E.I.A.). Format: cell-based. The following applies: 48 hours; for Procollagen Difference (%): vs DMSO. The protocol: as §1
The used reference activator is the Transforming Growth Factor β (TGF-β) at 1 ng/ml. […]
as §2
Upon completion of the incubation period, the type I pro-collagen contained in the fibroblasts incubation media has been quantified using a sensitive and specific E.I.A. kit.
Upon completion of the incubation period, the proteins contained in the cellular lysates have been quantified by a spectrophotometric method (Bradford method—Bradford M. (1976) Anal. Biochem., 72, 248-254).
as §3
The results are given in the form of μg of type I pro-collagen per mg of protein (average+/− the standard deviation, S.D.) and are reported in the following Table 5.

From patent publication US9463338B2, “Derivatives of the sinapinic acid” (PHARMASYNTHESE, priority 2013, dated 2016) come the findings set out here.

Where “and” joins values, the source holds several entries; their conditions need not be identical. Equal values may be shown once. Marks after values point to notes of the source that are not given here.

`CCCCCCCCCCCCCCCCNC(=O)/C=C/c1cc(OC)c(OC(C)=O)c(OC)c1` [Compound 22]: in data set [1] (after 9 days of treatment), the “Glycerol % in comparison with caffeine” value is given as 124%, the “slimming action higher than that of caffeine” value was found to be 24% and the “slimming activity in comparison with caffeine” value is “enhanced slimming activity”. For the same molecule, the “Glycerol Average” value in data set [1] (glycerol released in culture medium after 9 days, 100 μl of 2% product in DMSO in 2 ml medium on J0, J2, J3, J5, J7, 3 explants) is 0.114 mg/mL. Also, in data set [2] (10 ng/ml), the “Progerin % DMSO” value is 75.4%; the “Progerin Average” value is reported as 837.7 ng/mg of protein; the “Progerin, individual values” was 880.7 ng/mg of protein and 801.5 ng/mg of protein and 830.7 ng/mg of protein; the “Progerin Difference (%)” value is −24.6%. Also, in data set [2] (100 ng/ml), the “Progerin % DMSO” value is on record as 52.9%; the “Progerin Average” value was 586.9* ng/mg of protein; the “Progerin, individual values” was 711.0 ng/mg of protein and 548.8 ng/mg of protein and 500.9 ng/mg of protein; the “Progerin Difference (%)” value is recorded as −47.1%. Further, in data set [2] (500 ng/ml), the “Progerin % DMSO” value is 67.8%; the “Progerin Average” value was 752.5 ng/mg of protein; the “Progerin, individual values” was 967.8 ng/mg of protein and 727.4 ng/mg of protein and 562.4 ng/mg of protein; the “Progerin Difference (%)” value is −32.2%. The “neo synthesis of progerin” value in data set [2] is given as “significantly decrease”. Moreover, the “increase of the neo synthesis of elastin” value in data set [3] is “+16.7%”.

As usually defined, the melting point is the temperature of the solid-liquid transition. The molecule `COc1ccc2[nH]cc(CCNC(=O)/C=C/c3cc(OC)c(OC(C)=O)c(OC)c3)c2c1` [Compound 31, 4-acetoxy-3,5-dimethoxy-N-(5-methoxytryptamyl)-cinnamamide] gave a melting point of 148 °C. In addition, the “ORAC Antioxidant activity” value in data set [4] is given as 4874 ± 216 μmol TE/g.

`COc1cc(/C=C/C(=O)NCCc2ccc(O)cc2)cc(OC)c1OC(C)=O` [Compound 36, 4-acetoxy-3,5-dimethoxy-N-(4′-hydroxyphenylethyl)-cinnamamide] yielded a melting point of 99 °C. For the same molecule, in data set [2] (50 ng/ml), the “Progerin % DMSO” value is reported as 84.0%; the “Progerin Average” value is given as 932.6 ng/mg of protein; the “Progerin, individual values” is 1552.2 ng/mg of protein and 690.1 ng/mg of protein and 555.6 ng/mg of protein; the “Progerin Difference (%)” value is −16.0%. Moreover, in data set [2] (500 ng/ml), the “Progerin % DMSO” value was 23.7%; the “Progerin Average” value was 263.6* ng/mg of protein; the “Progerin, individual values” was 249.8 ng/mg of protein and 288.8 ng/mg of protein and 252.1 ng/mg of protein; the “Progerin Difference (%)” value is on record as −76.3%. Further, in data set [2] (5000 ng/ml), the “Progerin % DMSO” value stood at 18.8%; the “Progerin Average” value was 208.2* ng/mg of protein; the “Progerin, individual values” is 215.8 ng/mg of protein and 200.8 ng/mg of protein and 207.9 ng/mg of protein; the “Progerin Difference (%)” value was −81.2%. In data set [2], the “neo synthesis of progerin” value was “significantly decrease”. In data set [5] (50 ng/ml), the “Procollagen % DMSO” value is recorded as 121.5%; the “Procollagen Average” value is listed as 63.7* pg/mg of protein; the “Procollagen, individual values” was 68.1 pg/mg of protein and 57.8 pg/mg of protein and 65.3 pg/mg of protein; the “Procollagen Difference (%)” value stood at 21.5%. Also, in data set [5] (500 ng/ml), the “Procollagen % DMSO” value was 121.8%; the “Procollagen Average” value is 63.9* pg/mg of protein; the “Procollagen, individual values” was 59.2 pg/mg of protein and 65.1 pg/mg of protein and 67.2 pg/mg of protein; the “Procollagen Difference (%)” value is 21.8%. For the same molecule, in data set [5] (5000 ng/ml), the “Procollagen % DMSO” value was found to be 129.0%; the “Procollagen Average” value is 67.7* pg/mg of protein; the “Procollagen, individual values” was 73.8 pg/mg of protein and 64.8 pg/mg of protein and 64.4 pg/mg of protein; the “Procollagen Difference (%)” value is recorded as 29.0%. For the same molecule, in data set [3], the “increase of the neo synthesis of elastin” value was “+63.7%”.
